Results reported in patent publication US10646488B2 (Araxes Pharma LLC, priority 2016, dated 2020).

Target: T1, KRAS G12C 1-169, his-tagged protein, GDP-loaded (Homo sapiens, UniProt P01116, G12C)
T1 construct: KRAS G12C 1-169, his-tagged protein, GDP-loaded
Assay: Covalent binding (% modification) to KRAS G12C by mass spectrometry
Details: covalent binding to KRAS G12C after a ten minute incubation period
Description: Test compounds were prepared as 10 mM stock solutions in DMSO (Fisher cat # BP-231-100). KRAS G12C 1-169, his-tagged protein, GDP-loaded was diluted to 2 μm in buffer (20 mM Hepes, 150 mM NaCl, 1 mM MgCl2). Compounds were tested for activity as follows:
Compounds were diluted to 50× final test concentration in DMSO in 96-well storage plates. Compound stock solutions were vortexed before use and observed carefully for any sign of precipitation. Dilutions were as follow: • For 100 μM final compound concentration, compounds were diluted to 5000 μM (5 μl 10 mM compound stock+5 μl DMSO and mixed well by pipetting. • For 30 μM final compound concentration, compounds were diluted to 1500 μM (3 μl 10 mM compound stock+17 μl DMSO) and mixed well by pipetting. • For 10 μM final compound concentration, compounds were diluted to 500 μM (2 μl 10 mM compound stock+38 μl DMSO) and mixed well by pipetting. 49 μl of the stock protein solution was added to each well of a 96-well PCR plate (Fisher cat #1423027). 1 μl of the diluted 50× compounds were added to appropriate wells in the PCR plate using 12-channel pipettor. Reactions were mixed carefully and thoroughly by pipetting up/down with a 200·1 multi-channel pipettor. […] 5 μl of 2% formic acid (Fisher cat # A117) in DI H2O was then added to each well followed by mixing with a pipette. The plate was then resealed with aluminum seal and stored on dry ice until analyzed as described below.
The above described assays were analyzed by mass spectrometry according to one of the following two procedures:
The MS instrument is set to positive polarity, 2 GHz resolution, and low mass (1700) mode and allowed to equilibrate for 30 minutes. The instrument is then calibrated, switched to acquisition mode and the appropriate method loaded.
After another 30 minute equilibration time, a blank batch (i.e., buffer) is run to ensure equipment is operating properly. The samples are thawed at 37° C. for 10 minutes, briefly centrifuged, and transfer to the bench top. Wells A1 and H12 are spiked with 1 uL 500 uM internal standard peptide, and the plates centrifuged at 2000×g for 5 minutes. The method is then run and masses of each individual well recorded.
The masses (for which integration data is desired) for each well are pasted into the platemap and exported from the analysis. Masses for the internal standards are exported as well. The data at 50 ppm is extracted for the +19 charge state, and identity of well A1 is assigned using the internal standard spike and integrated. Peak data is exported as a TOF list and the above steps are repeated individually, for the +20, 21, 22, 23, 24, and 25 charge states.
The masses and peak intensities of KRAS G12C protein species were measured using a Dionex RSLCnano system (Thermo Scientific) connected to a Q Exactive Plus mass spectrometer (Thermo Scientific).
[…] of sample was each loaded onto a Aeris™ 3.6 μm WIDEPORE C4 200 Å, LC Column 50×2.1 mm column maintained at 40° C. at a flow rate of 600 μl min^−1 with […] (0.1% formic acid in acetonitrile). The liquid chromatography conditions were 20% solvent B for 1 min, 20% to 60% solvent B for 1.5 min, 60% to 90% solvent for 0.5 min, 90% solvent B for 0.2 min, 90% to 20% solvent B for 0.2 min, and then equilibrated for 1.6 min before the following sample injection. The flow rate was maintained at 600 μl min^−1 throughout the sample analysis.
The mass spectrometer was operated in profile mode at a resolution of 17500, 5 microscans, using 50 msec max injection time and an AGC target of 1e6, and a full mass range from 800-1850 m/z was recorded. The HCD trapping gas was optimized for maximum sensitivity for intact proteins. The ionization method was electrospray ionization, which used a spray voltage of 4 kV, sheath gas flow set to 50 au, auxiliary gas flow set to 10 au and sweep gas flow set to 1 au. […]

**Q.** With `C=CC(=O)N1C[C@H](C)N(c2nc(OCCN(CC)CC)nc3c(F)c(-c4c(O)cccc4F)c(Cl)cc23)C[C@H]1C` (atropisomer, axis not shown) [Compound 74, 1-((2R,5S)-4-((R)-6-chloro-2-(2-(diethylamino)ethoxy)-8-fluoro-7-(2-fluoro-6-hydroxyphenyl)quinazolin-4-yl)-2,5-dimethyl-piperazin-1-yl) prop-2-en-1-one] as the compound, how does the Binding % read?
**A.** + (+ indicates binding activity up to 50%)

**Q.** How did the Binding % turn out when `C=CC(=O)N1C[C@H](C)N(c2nc(OCCN(CC)CC)nc3c(F)c(-c4c(O)cccc4F)c(Cl)cc23)C[C@H]1C` (atropisomer, axis not shown) [Compound 75, 1-((2R,5S)-4-((S)-6-chloro-2-(2-(diethylamino)ethoxy)-8-fluoro-7-(2-fluoro-6-hydroxyphenyl)quinazolin-4-yl)-2,5-dimethyl-piperazin-1-yl) prop-2-en-1-one] was run?
**A.** +++ (+++ indicates binding activity greater than 90%)

**Q.** Which Binding % does the source give for `C=CC(=O)N1C[C@H](C)N(c2nc(OCCN3CC(F)(F)C3)nc3c(F)c(-c4c(O)cccc4F)c(Cl)cc23)C[C@H]1C` (atropisomer, axis not shown) [Compound 83, 1-((2R,5S)-4-((R)-6-chloro-2-(2-(3,3-difluoroazetidin-1-yl)ethoxy)-8-fluoro-7-(2-fluoro-6-hydroxyphenyl)quinazolin-4-yl)-2,5-dimethyl-piperazin-1-yl) prop-2-en-1-one] here?
**A.** + (+ indicates binding activity up to 50%)

**Q.** With `C=CC(=O)N1C[C@H](C)N(c2nc(OCCN3CC(F)(F)C3)nc3c(F)c(-c4c(O)cccc4F)c(Cl)cc23)C[C@H]1C` (atropisomer, axis not shown) [Compound 84, 1-((2R,5S)-4-((S)-6-chloro-2-(2-(3,3-difluoroazetidin-1-yl)ethoxy)-8-fluoro-7-(2-fluoro-6-hydroxyphenyl)quinazolin-4-yl)-2,5-dimethyl-piperazin-1-yl) prop-2-en-1-one] as the compound, how does the Binding % read?
**A.** +++ (+++ indicates binding activity greater than 90%)

Same assay, conditions: covalent binding to KRAS G12C after a three minute incubation period

**Q.** `C=CC(=O)N1C[C@H](C)N(c2nc(OCCN3CC(F)(F)C3)nc3c(F)c(-c4c(O)cccc4F)c(Cl)cc23)C[C@H]1C` (atropisomer, axis not shown) [Compound 89, 1-((2R,5S)-4-(6-chloro-2-(2-(3,3-difluoroazetidin-1-yl)ethoxy)-8-fluoro-7-((R)-2-fluoro-6-hydroxyphenyl)quinazolin-4-yl)-2,5-dimethyl-piperazin-1-yl) prop-2-en-1-one] was tested. Which Binding % did it give?
**A.** + (+ indicates binding activity greater than 0% and up to 50%)

**Q.** Which Binding % does the source give for `C=CC(=O)N1C[C@H](C)N(c2nc(OCCN3CC(F)(F)C3)nc3c(F)c(-c4c(O)cccc4F)c(Cl)cc23)C[C@H]1C` (atropisomer, axis not shown) [Compound 90, 1-((2R,5S)-4-(6-chloro-2-(2-(3,3-difluoroazetidin-1-yl)ethoxy)-8-fluoro-7-((S)-2-fluoro-6-hydroxyphenyl)quinazolin-4-yl)-2,5-dimethyl-piperazin-1-yl) prop-2-en-1-one] here?
**A.** +++ (+++ indicates binding activity greater than 90%)

**Q.** Which Binding % does the source give for `C=CC(=O)N1C[C@H](C)N(c2nc(N3CC(NC)C3)nc3c(F)c(-c4c(C)ccc5cn[nH]c45)c(Cl)cc23)C[C@H]1C` (atropisomer, axis not shown) [Compound 108, 1-((2R,5S)-4-(6-chloro-8-fluoro-7-((R)-6-methyl-1H-indazol-7-yl)-2-(3-(methylamino)azetidin-1-yl)quinazolin-4-yl)-2,5-dimethyl-piperazin-1-yl) prop-2-en-1-one] here?
**A.** +++ (+++ indicates binding activity greater than 90%)

**Q.** How did the Binding % turn out when `C=CC(=O)N1C[C@H](C)N(c2nc(N3CC(NC)C3)nc3c(F)c(-c4c(C)ccc5cn[nH]c45)c(Cl)cc23)C[C@H]1C` (atropisomer, axis not shown) [Compound 109, 1-((2R,5S)-4-(6-chloro-8-fluoro-7-((S)-6-methyl-1H-indazol-7-yl)-2-(3-(methylamino)azetidin-1-yl)quinazolin-4-yl)-2,5-dimethyl-piperazin-1-yl) prop-2-en-1-one] was run?
**A.** + (+ indicates binding activity greater than 0% and up to 50%)

**Q.** How did the Binding % turn out when `C=CC(=O)N1C[C@H](C)N(c2nc(OCCN3CC(F)(F)C3)nc3c(F)c(-c4c(C)ccc5cn[nH]c45)c(Cl)cc23)C[C@H]1C` (atropisomer, axis not shown) [Compound 127, 1-((2R,5S)-4-(6-chloro-2-(2-(3,3-difluoroazetidin-1-yl)ethoxy)-8-fluoro-7-((R)-6-methyl-1H-indazol-7-yl)quinazolin-4-yl)-2,5-dimethyl-piperazin-1-yl) prop-2-en-1-one] was run?
**A.** +++ (+++ indicates binding activity greater than 90%)

**Q.** With `C=CC(=O)N1C[C@H](C)N(c2nc(OCCN3CC(F)(F)C3)nc3c(F)c(-c4c(C)ccc5cn[nH]c45)c(Cl)cc23)C[C@H]1C` (atropisomer, axis not shown) [Compound 128, 1-((2R,5S)-4-(6-chloro-2-(2-(3,3-difluoroazetidin-1-yl)ethoxy)-8-fluoro-7-((S)-6-methyl-1H-indazol-7-yl)quinazolin-4-yl)-2,5-dimethyl-piperazin-1-yl) prop-2-en-1-one] as the compound, how does the Binding % read?
**A.** + (+ indicates binding activity greater than 0% and up to 50%)

**Q.** How did the Binding % turn out when `C=CC(=O)N1C[C@H](C)N(c2nc(N3CC(N(C)C)C3)nc3c(F)c(-c4c(C)ccc5[nH]ncc45)c(Cl)cc23)C[C@H]1C` (atropisomer, axis not shown) [Compound 130, 1-((2R,5S)-4-(6-chloro-2-(3-(dimethylamino)azetidin-1-yl)-8-fluoro-7-((R)-5-methyl-1H-indazol-4-yl)quinazolin-4-yl)-2,5-dimethyl-piperazin-1-yl) prop-2-en-1-one] was run?
**A.** +++ (+++ indicates binding activity greater than 90%)

**Q.** With `C=CC(=O)N1C[C@H](C)N(c2nc(N3CC(N(C)C)C3)nc3c(F)c(-c4c(C)ccc5[nH]ncc45)c(Cl)cc23)C[C@H]1C` (atropisomer, axis not shown) [Compound 131, 1-((2R,5S)-4-(6-chloro-2-(3-(dimethylamino)azetidin-1-yl)-8-fluoro-7-((S)-5-methyl-1H-indazol-4-yl)quinazolin-4-yl)-2,5-dimethyl-piperazin-1-yl) prop-2-en-1-one] as the compound, how does the Binding % read?
**A.** + (+ indicates binding activity greater than 0% and up to 50%)

**Q.** With `C=CC(=O)N1C[C@H](C)N(c2nc(N3CC(N(C)C4CCC4)C3)nc3c(F)c(-c4c(O)cccc4F)c(Cl)cc23)C[C@H]1C` (atropisomer, axis not shown) [Compound 138, 1-((2R,5S)-4-(6-chloro-2-(3-(cyclobutyl (methyl)amino)azetidin-1-yl)-8-fluoro-7-((S)-2-fluoro-6-hydroxyphenyl)quinazolin-4-yl)-2,5-dimethyl-piperazin-1-yl) prop-2-en-1-one] as the compound, how does the Binding % read?
**A.** +++ (+++ indicates binding activity greater than 90%)

**Q.** `C=CC(=O)N1C[C@H](C)N(c2nc(N3CC(N(C)C4CCC4)C3)nc3c(F)c(-c4c(O)cccc4F)c(Cl)cc23)C[C@H]1C` (atropisomer, axis not shown) [Compound 139, 1-((2R,5S)-4-(6-chloro-2-(3-(cyclobutyl (methyl)amino)azetidin-1-yl)-8-fluoro-7-((R)-2-fluoro-6-hydroxyphenyl)quinazolin-4-yl)-2,5-dimethyl-piperazin-1-yl) prop-2-en-1-one] was tested. Which Binding % did it give?
**A.** + (+ indicates binding activity greater than 0% and up to 50%)
